From the supplement of paper PMC10307832

Tests used:
Test in all cases: relative viability (nuclei count vs DMSO), 5 days (fraction); higher = more cells survive
LCLC-103H = system: LCLC-103H
Summary of the method: (§1)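 Lung cancer cell lines, seeded in 1536-well plates, were treated the following day by pin tool with a single drug or with five library-drug doses (not always all listed) in √10 steps on top of a fixed anchor-drug dose. Cells were fixed and nuclei stained in one step after 5 days, and nuclei were counted. Relative viability is the nuclei count for treated wells divided by that for vehicle wells, reported as medians of duplicate plates.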

LXF-289 = system: LXF-289
Summary of the method: as §1

LCLC-97TM1 = system: LCLC-97TM1
Summary of the method: as §1

NCI-H1650 = system: NCI-H1650
Summary of the method: as §1

NCI-H1437 = system: NCI-H1437
Summary of the method: as §1

NCI-H1792 = system: NCI-H1792
Summary of the method: as §1

NCI-H2405 = system: NCI-H2405
Summary of the method: as §1

NCI-H1793 = system: NCI-H1793
Summary of the method: as §1

HCC-827 = system: HCC-827
Summary of the method: as §1

SK-LU-1 = system: SK-LU-1
Summary of the method: as §1

NCI-H1395 = system: NCI-H1395
Summary of the method: as §1

NCI-H2087 = system: NCI-H2087
Summary of the method: as §1

NCI-H322M = system: NCI-H322M
Summary of the method: as §1

NCI-H1944 = system: NCI-H1944
Summary of the method: as §1

NCI-H3122 = system: NCI-H3122
Summary of the method: as §1

NCI-H647 = system: NCI-H647
Summary of the method: as §1

RERF-LC-KJ = system: RERF-LC-KJ
Summary of the method: as §1

201T = system: 201T
Summary of the method: as §1

BEN = system: BEN
Summary of the method: as §1

NCI-H727 = system: NCI-H727
Summary of the method: as §1

Structure (SMILES): Cc1sc2c(c1C)C(c1ccc(Cl)cc1)=N[C@@H](CC(=O)OC(C)(C)C)c1nnc(C)n1-2 [JQ1] + Nc1ncn([C@H]2C[C@H](O)[C@@H](CO)O2)c(=O)n1 [Decitabine] (partner 2 µM)
- relative viability (LCLC-103H; first compound 0.04 µM): 0.684
- relative viability (LCLC-103H; first compound 0.1265 µM): 0.575
- relative viability (LCLC-103H; first compound 0.4 µM): 0.544
- relative viability (LCLC-103H; first compound 1.265 µM): 0.48
- relative viability (LCLC-103H; first compound 4 µM): 0.542
- relative viability (LXF-289; first compound 0.04 µM): 0.368
- relative viability (LXF-289; first compound 0.1265 µM): 0.401
- relative viability (LXF-289; first compound 0.4 µM): 0.344
- relative viability (LXF-289; first compound 1.265 µM): 0.226
- relative viability (LXF-289; first compound 4 µM): 0.222
- relative viability (LCLC-97TM1; first compound 0.04 µM): 0.231
- relative viability (LCLC-97TM1; first compound 0.1265 µM): 0.223
- relative viability (LCLC-97TM1; first compound 0.4 µM): 0.188
- relative viability (LCLC-97TM1; first compound 1.265 µM): 0.156
- relative viability (LCLC-97TM1; first compound 4 µM): 0.125
- relative viability (NCI-H1650; first compound 0.04 µM): 0.442
- relative viability (NCI-H1650; first compound 0.1265 µM): 0.44
- relative viability (NCI-H1650; first compound 0.4 µM): 0.333
- relative viability (NCI-H1650; first compound 1.265 µM): 0.185
- relative viability (NCI-H1650; first compound 4 µM): 0.146
- relative viability (NCI-H1437; first compound 0.04 µM): 0.544
- relative viability (NCI-H1437; first compound 0.1265 µM): 0.577
- relative viability (NCI-H1437; first compound 0.4 µM): 0.55
- relative viability (NCI-H1437; first compound 1.265 µM): 0.486
- relative viability (NCI-H1437; first compound 4 µM): 0.37
- relative viability (NCI-H1792; first compound 0.04 µM): 0.477
- relative viability (NCI-H1792; first compound 0.1265 µM): 0.729
- relative viability (NCI-H1792; first compound 0.4 µM): 0.525
- relative viability (NCI-H1792; first compound 1.265 µM): 0.334
- relative viability (NCI-H1792; first compound 4 µM): 0.187
- relative viability (NCI-H2405; first compound 0.04 µM): 0.81
- relative viability (NCI-H2405; first compound 0.4 µM): 0.75
- relative viability (NCI-H2405; first compound 1.265 µM): 0.577
- relative viability (NCI-H2405; first compound 4 µM): 0.471
- relative viability (NCI-H1793; first compound 0.04 µM): 0.557
- relative viability (NCI-H1793; first compound 0.1265 µM): 0.433
- relative viability (NCI-H1793; first compound 0.4 µM): 0.468
- relative viability (NCI-H1793; first compound 1.265 µM): 0.418
- relative viability (NCI-H1793; first compound 4 µM): 0.484
- relative viability (HCC-827; first compound 0.04 µM): 0.34
- relative viability (HCC-827; first compound 0.1265 µM): 0.302
- relative viability (HCC-827; first compound 1.265 µM): 0.333
- relative viability (HCC-827; first compound 4 µM): 0.314
- relative viability (SK-LU-1; first compound 0.04 µM): 0.614
- relative viability (SK-LU-1; first compound 0.1265 µM): 0.519
- relative viability (SK-LU-1; first compound 0.4 µM): 0.416
- relative viability (SK-LU-1; first compound 1.265 µM): 0.308
- relative viability (SK-LU-1; first compound 4 µM): 0.213
- relative viability (NCI-H1395; first compound 0.04 µM): 0.683
- relative viability (NCI-H1395; first compound 0.1265 µM): 0.701
- relative viability (NCI-H1395; first compound 0.4 µM): 0.71
- relative viability (NCI-H1395; first compound 1.265 µM): 0.587
- relative viability (NCI-H1395; first compound 4 µM): 0.457
- relative viability (NCI-H2087; first compound 0.04 µM): 0.316
- relative viability (NCI-H2087; first compound 0.1265 µM): 0.251
- relative viability (NCI-H2087; first compound 0.4 µM): 0.262
- relative viability (NCI-H2087; first compound 1.265 µM): 0.151
- relative viability (NCI-H2087; first compound 4 µM): 0.18
- relative viability (NCI-H322M; first compound 0.04 µM): 0.631
- relative viability (NCI-H322M; first compound 0.1265 µM): 0.886
- relative viability (NCI-H322M; first compound 0.4 µM): 0.641
- relative viability (NCI-H322M; first compound 1.265 µM): 0.594
- relative viability (NCI-H322M; first compound 4 µM): 0.592
- relative viability (NCI-H1944; first compound 0.04 µM): 0.438
- relative viability (NCI-H1944; first compound 0.1265 µM): 0.405
- relative viability (NCI-H1944; first compound 0.4 µM): 0.409
- relative viability (NCI-H1944; first compound 1.265 µM): 0.335
- relative viability (NCI-H1944; first compound 4 µM): 0.313
- relative viability (NCI-H3122; first compound 0.04 µM): 0.489
- relative viability (NCI-H3122; first compound 0.1265 µM): 0.395
- relative viability (NCI-H3122; first compound 0.4 µM): 0.517
- relative viability (NCI-H3122; first compound 1.265 µM): 0.343
- relative viability (NCI-H3122; first compound 4 µM): 0.38
- relative viability (NCI-H647; first compound 0.04 µM): 0.309
- relative viability (NCI-H647; first compound 0.1265 µM): 0.331
- relative viability (NCI-H647; first compound 0.4 µM): 0.344
- relative viability (NCI-H647; first compound 1.265 µM): 0.25
- relative viability (NCI-H647; first compound 4 µM): 0.203
- relative viability (RERF-LC-KJ; first compound 0.04 µM): 0.648
- relative viability (RERF-LC-KJ; first compound 0.1265 µM): 0.532
- relative viability (RERF-LC-KJ; first compound 0.4 µM): 0.56
- relative viability (RERF-LC-KJ; first compound 1.265 µM): 0.333
- relative viability (RERF-LC-KJ; first compound 4 µM): 0.235
- relative viability (201T; first compound 0.04 µM): 0.88
- relative viability (201T; first compound 0.4 µM): 0.694
- relative viability (201T; first compound 1.265 µM): 0.527
- relative viability (201T; first compound 4 µM): 0.453
- relative viability (BEN; first compound 0.04 µM): 0.712
- relative viability (BEN; first compound 0.1265 µM): 0.578
- relative viability (BEN; first compound 0.4 µM): 0.63
- relative viability (BEN; first compound 1.265 µM): 0.511
- relative viability (BEN; first compound 4 µM): 0.38
- relative viability (NCI-H727; first compound 0.04 µM): 1
- relative viability (NCI-H727; first compound 0.1265 µM): 0.877
- relative viability (NCI-H727; first compound 0.4 µM): 0.506
- relative viability (NCI-H727; first compound 1.265 µM): 0.597
- relative viability (NCI-H727; first compound 4 µM): 0.649
